The structures appear in SMILES notation. “Also recorded” adds a separate entry of the source.

For one data set, the target named is T1, RON phosphorylation (Homo sapiens, UniProt Q04912).
T1 construct: endogenous in cells; host or cells: HCT8 (cultured, and as xenograft tumour in nude mice)
In words: RON phosphorylation in tumor tissue of the HCT8 xenograft model (immunochemical staining, western blot). It counts as in vivo. Conditions: after completion of administration, FIG. 8c, 8d. Here is the method:
(§1) The cells in the sample were lysed using RIPA buffer and the protein was extracted therefrom using a high speed centrifuge. The protein in an amount of 30 μg per cell was separated by electrophoresis, transferred onto a PDVF membrane by western blot, and allowed to react with RON antibodies, which were diluted in 5% skim milk at a 1:2000 ratio, at 4° C. for 12 hours. Then, the resultant was washed 3 times with TBS-T buffer for 15 minutes per wash, reacted with the secondary antibodies, which were diluted in 5% skim milk at a 1:2000 ratio, at room temperature for 2 hours, washed 3 times with TBS-T buffer for 15 minutes per wash. The illumination of the PDVF membrane was induced using ECL buffer and the expression of the RON protein was developed using an X-ray film. Additionally, 1 μg of the RON antibody was added to the protein in an amount of 500 μg per cell by immunoprecipitation method, reacted at 4° C. for 12 hours, and anti-antibody beads were added thereto to immunoprecipitate the RON antibody. The resultant was separated by electrophoresis, transferred onto a PDVF membrane by western blot, and allowed to react with p-Tyr antibodies, which were diluted in 5% skim milk at a 1:1000 ratio, at 4° C. for 12 hours. […]

The subject of the next data set is RON-active Δ160. In words: Inhibition of RON phosphorylation in Colo320HSR introduced with RON variant. Conditions: Colo320HSR with RON-active Δ160 gene. It counts as cell-based. Here is the method:
as §1

In the next data set the target is T2, RON-active Δ155 (Homo sapiens, UniProt Q04912, DEL574-682/INS813Q).
T2 construct: expressed in transfected cells; host or cells: Colo320HSR
Described as above. Format: cell-based. The following applies: Colo320HSR with RON-active Δ155 gene. Here is the method:
as §1

The test system of a further data set is HT29. Description: Induction of apoptosis. Format: cell-based. Here is the method:
(§2) HT29 and HCT8, the colon cancer cell lines which have a high p-RON expression level because RON is always phosphorylated, were treated with CJ12524 in order to confirm the presence of apoptosis.

Data set [1] has as its system HCT8. In words: Induction of apoptosis. Format: cell-based. Here is the method:
as §2

In the next data set the target is T3, RON (p-RON) in HCT8 (Homo sapiens, UniProt Q04912).
T3 construct: endogenous in cells; host or cells: HCT8 (cultured, and as xenograft tumour in nude mice)
In words: Inhibition of RON phosphorylation in HCT8 colon cancer cells. It counts as cell-based. Conditions: HCT8, various concentrations. Here is the method: as §1

Data set [2] concerns HCT8 cell line xenograft in nude mice. In words: RON-active cancer cell xenograft model, tumor size, tumor weight, body weight. It counts as in vivo, mouse. Here is the method: For analyzing the drug sensitivity to CJ12524 in an in-vivo state, the present inventors transplanted a cancer cell line which was determined to be positive against the RON activity into nude mice, and thereby a cancer cell-derived xenograft model ([…]) was prepared.

The subject of data set [3] is HCT8. Description: Cell invasion (cell metastasis). Conditions: HCT8, FIG. 7e. Format: cell-based. Here is the method: HCT8, a colon cancer cell line where RON is always phosphorylated, was treated with CJ12524 in order to confirm the degree of cell invasion.
In the next data set the test system is RON (p-RON) in HT29. Description: Inhibition of RON phosphorylation in HT29 colon cancer cells. The following applies: HT29, various concentrations. It counts as cell-based. Here is the method: as §1
In data set [4] the test system is Colo320HSR introduced with RON-active Δ155 gene. Description: Induction of apoptosis. Format: cell-based. From the text: (§3) Additionally, Colo320HSR, the colon cancer cell line in which RON is not expressed, was introduced with the RON-active Δ155 gene and the RON-active Δ160 gene, which are constantly active in the Colo320HSR, and treated with CJ12524 at various concentrations in order to confirm the presence of apoptosis.

For data set [5], the system named is Colo320HSR introduced with RON-active Δ160 gene. In words: Induction of apoptosis. Format: cell-based.
Description: as §3

Data set [6] deals with MKN1 cells transplanted into Balb/c nude mice. In words: Stomach cancer cell xenograft mouse model without RON activity, tumor volume. Format: in vivo. Conditions: 30 mpk and 100 mpk oral daily, FIG. 9. From the text:
It was confirmed whether tumor formation can be inhibited by CJ12537 in a stomach cancer xenograft mouse model without RON activity.
Specifically, 5-to 6-week-old Balb/c nude mice were subcutaneously injected with 1×10^7 cells (MKN1 parent, MKN1 RONΔ160 stable cell) and Matrigel at a 1:1 (v/v) ratio. When the tumor size grew to a size of 90 mm^3 to 100 mm^3, the mice were divided into groups and administered with drugs. Vehicle, CJ12537 (30 mpk), CJ12537 (100 mpk), and positive control (Amgen; 30 mpk) were orally administered daily. The tumor size was measured once in three days. Upon completion of the administration, the mice were sacrificed and tissues were ablated and the weight of tumor was measured. In particular, proteins were extracted from the tissues and the changes in expression pattern of p-RON and related proteins were confirmed by western blot analysis. Additionally, for confirming the change in tumor size, the tumor size was measured once every three days and compared and analyzed even after the completion of drug administration.

Data set [7] concerns Colo320HSR introduced with RON Δ160. Description: Colo320HSR xenograft animal model, inhibition of tumor growth. Format: in vivo. Here is the method: (§4) Specifically, an animal model using the Colo320HSR cell line without RON activity (control group) and an animal model using the cell line introduced with the RON-active Δ155 gene and the RON-active Δ160 gene, which are constantly expressed, or a RON M1254T mutant were prepared, and their effects of inhibiting tumor formation by CJ12537 were compared.

The test system of data set [8] is Colo320HSR introduced with RON Δ155. The data set is described as above. Format: in vivo. The following applies: RON-active variant Δ155. Here is the method:
as §4

The subject of data set [9] is Colo320HSR control (pMET & pRON negative, without RON activity). Described as above. The following applies: various concentrations. It counts as in vivo. Here is the method:
as §4

[10] abbreviates: various concentrations, 14 days, FIG. 8a.

T3 sequence (Q04912 25-1400): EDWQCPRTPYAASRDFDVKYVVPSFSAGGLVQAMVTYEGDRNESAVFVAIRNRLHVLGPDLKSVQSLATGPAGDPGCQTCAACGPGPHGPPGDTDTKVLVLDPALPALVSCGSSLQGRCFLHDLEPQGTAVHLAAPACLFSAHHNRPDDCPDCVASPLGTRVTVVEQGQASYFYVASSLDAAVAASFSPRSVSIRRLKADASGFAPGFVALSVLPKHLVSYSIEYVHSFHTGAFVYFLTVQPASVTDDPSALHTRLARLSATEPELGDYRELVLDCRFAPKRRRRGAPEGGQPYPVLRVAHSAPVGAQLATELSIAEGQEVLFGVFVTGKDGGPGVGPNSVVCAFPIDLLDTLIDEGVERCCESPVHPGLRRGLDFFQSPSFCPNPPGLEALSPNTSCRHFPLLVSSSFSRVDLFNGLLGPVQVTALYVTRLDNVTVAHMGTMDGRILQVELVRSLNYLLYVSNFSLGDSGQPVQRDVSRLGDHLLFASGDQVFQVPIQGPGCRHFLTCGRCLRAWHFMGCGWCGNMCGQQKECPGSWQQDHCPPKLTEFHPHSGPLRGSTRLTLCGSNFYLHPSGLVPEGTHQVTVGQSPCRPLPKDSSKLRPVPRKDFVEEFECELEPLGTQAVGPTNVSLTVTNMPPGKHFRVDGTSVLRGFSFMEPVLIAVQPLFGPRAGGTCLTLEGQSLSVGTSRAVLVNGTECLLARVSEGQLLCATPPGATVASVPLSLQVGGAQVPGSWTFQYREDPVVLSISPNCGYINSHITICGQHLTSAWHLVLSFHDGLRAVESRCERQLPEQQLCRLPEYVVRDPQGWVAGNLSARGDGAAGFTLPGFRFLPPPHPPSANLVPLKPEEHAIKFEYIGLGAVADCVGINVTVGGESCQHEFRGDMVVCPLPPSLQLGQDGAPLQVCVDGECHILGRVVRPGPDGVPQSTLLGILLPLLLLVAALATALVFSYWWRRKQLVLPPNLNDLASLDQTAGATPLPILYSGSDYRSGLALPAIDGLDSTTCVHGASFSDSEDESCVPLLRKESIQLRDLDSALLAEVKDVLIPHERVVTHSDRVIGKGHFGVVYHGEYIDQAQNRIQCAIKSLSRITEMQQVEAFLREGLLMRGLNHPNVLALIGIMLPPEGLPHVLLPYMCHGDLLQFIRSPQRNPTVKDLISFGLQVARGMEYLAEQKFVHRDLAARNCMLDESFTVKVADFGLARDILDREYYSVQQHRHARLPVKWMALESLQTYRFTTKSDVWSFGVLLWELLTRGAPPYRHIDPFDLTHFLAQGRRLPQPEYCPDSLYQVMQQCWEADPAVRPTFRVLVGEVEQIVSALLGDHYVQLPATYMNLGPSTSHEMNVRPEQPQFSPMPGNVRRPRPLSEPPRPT
T1 sequence (Q04912 25-1400): as above
T2 sequence (Q04912 with tags, fused parts or gaps isoform Q04912-2 DEL574-682/INS813Q): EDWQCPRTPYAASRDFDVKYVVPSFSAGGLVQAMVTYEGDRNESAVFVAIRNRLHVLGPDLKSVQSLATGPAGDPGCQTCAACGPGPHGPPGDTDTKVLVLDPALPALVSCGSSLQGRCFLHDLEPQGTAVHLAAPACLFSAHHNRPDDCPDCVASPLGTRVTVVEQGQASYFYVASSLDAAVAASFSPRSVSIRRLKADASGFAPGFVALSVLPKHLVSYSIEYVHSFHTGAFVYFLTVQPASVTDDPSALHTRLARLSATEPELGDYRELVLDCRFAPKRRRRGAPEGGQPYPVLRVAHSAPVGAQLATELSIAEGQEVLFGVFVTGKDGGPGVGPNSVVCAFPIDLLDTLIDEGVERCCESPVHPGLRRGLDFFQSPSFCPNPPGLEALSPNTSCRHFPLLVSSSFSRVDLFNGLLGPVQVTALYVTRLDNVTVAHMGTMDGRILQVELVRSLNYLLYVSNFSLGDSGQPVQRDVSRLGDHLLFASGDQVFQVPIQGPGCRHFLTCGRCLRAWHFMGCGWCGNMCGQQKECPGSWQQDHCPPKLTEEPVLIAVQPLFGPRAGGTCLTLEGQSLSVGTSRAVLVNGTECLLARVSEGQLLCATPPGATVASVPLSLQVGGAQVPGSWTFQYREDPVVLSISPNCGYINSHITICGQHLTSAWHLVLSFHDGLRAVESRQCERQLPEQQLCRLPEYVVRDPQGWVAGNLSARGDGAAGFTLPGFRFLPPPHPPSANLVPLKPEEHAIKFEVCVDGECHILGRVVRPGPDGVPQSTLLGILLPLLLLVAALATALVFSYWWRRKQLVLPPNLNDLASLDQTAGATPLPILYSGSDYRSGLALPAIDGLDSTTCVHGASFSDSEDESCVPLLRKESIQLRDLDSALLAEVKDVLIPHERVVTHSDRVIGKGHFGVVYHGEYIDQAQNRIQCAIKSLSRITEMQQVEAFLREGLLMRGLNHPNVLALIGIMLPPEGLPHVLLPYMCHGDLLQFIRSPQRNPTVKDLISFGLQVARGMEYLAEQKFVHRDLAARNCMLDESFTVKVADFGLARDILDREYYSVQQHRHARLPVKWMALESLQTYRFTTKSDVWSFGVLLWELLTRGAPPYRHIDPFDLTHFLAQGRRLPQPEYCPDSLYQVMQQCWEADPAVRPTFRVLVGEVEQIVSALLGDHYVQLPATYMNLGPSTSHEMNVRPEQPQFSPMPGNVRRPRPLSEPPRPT

`CCOc1ccn(-c2ccc(F)cc2)c(=O)c1C(=O)Nc1ccc(Oc2ccnc3cc(-c4ccccn4)sc23)c(F)c1` [CJ12524, 4-ethoxy-N-(3-fluoro-4-(2-(pyridin-2-yl)thieno[3,2-b]pyridin-7-yloxy)phenyl)-1-(4-fluorophenyl)-2-oxo-1,2-dihydropyridin-3-carboxamide]: the “RON phosphorylation in tumor tissue” value at RON phosphorylation is “decreased”. Besides, the RON phosphorylation result was “reduced” with RON-active Δ160, “reduced” at RON-active Δ155, “inhibited; also recorded: reduced” on RON (p-RON) in HCT8 and “inhibited; also recorded: reduced” in the data set on RON (p-RON) in HT29. Besides, the “expression of cleaved caspase 3” value in the data set on HT29 (HT29) and in the data set with HCT8 [1] (HCT8) was “increased” in each case. Besides, the apoptosis result was “increased” in the data set with HT29 (HT29, various concentrations, according to the concentration, FIG. 7c); “increased” with HCT8 [1] (HCT8, various concentrations, according to the concentration, FIG. 7c); “increased” in data set [4] (Colo320HSR RON-active Δ155, various concentrations, FIG. 7d); “increased” in data set [5] (Colo320HSR RON-active Δ160, various concentrations, FIG. 7d). In addition, the “tumor weight upon completion of drug administration” value in [2] (all treated groups, FIG. 8b) was “reduced”. For the same compound, the “body weight of the mice” value in data set [2] (setting [10]) is listed as “almost no decrease”. The “tumor growth (tumor size)” value in data set [2] (setting [10]) is “inhibited”. In addition, the “inhibition of the degree of cell metastasis (cell invasion)” value with HCT8 [3] was “about 60%”. The “expression of cleaved caspase 3 (apoptosis marker)” value in data set [4] (Colo320HSR RON-active Δ155, according to the concentration) is recorded as “increased”; in [5] (Colo320HSR RON-active Δ160, according to the concentration), “increased”.

Turning to `CCOc1ccn(-c2ccc(F)cc2)c(=O)c1C(=O)Nc1ccc(Oc2ccnc3cc(-c4cn(C)cn4)sc23)c(F)c1` [CJ12537, 4-ethoxy-N-(3-fluoro-4-(2-(1-methyl-1H-imidazol-4-yl)thieno[3,2-b]pyridin-7-yloxy)phenyl)-1-(4-fluorophenyl)-2-oxo-1,2-dihydropyridin-3-carboxamide], the tumor volume result in data set [6] is listed as “no noticeable change”. For the same compound, the “Tumor growth relative to vehicle (fold)” value in data set [7] (Colo320HSR RON Δ160, 30 MPK, vehicle = 1) was 0.71 fold. The tumor formation entry in data set [7] (RON-active variant Δ160) is reported as “inhibited tumor formation”; in data set [8], “inhibited tumor formation”; in data set [9], “did not inhibit tumor formation at all”.

Source of the values: patent US11946934B2, “Biomarker for predicting the sensitivity to a protein kinase inhibitor and a use thereof” (Wellmarker Bio Co., LTD., priority 2014, dated 2024).
